Measurements from ChEMBL document CHEMBL1201862, “PubChem BioAssay data set” (2004).
Active and inactive are the calls of the source.

Experiments:
[1] = biological target: T1, Corticotropin-releasing factor receptor 2/Corticotropin-releasing factor-binding protein (Homo sapiens, UniProt P24387+Q13324); assay: activators of CRF receptor 2 with binding protein – uHTS hits, confirmation (AID 602473); format: functional; settings: read-out: EC50_Mean
T1 sequence (Q13324 whole entry): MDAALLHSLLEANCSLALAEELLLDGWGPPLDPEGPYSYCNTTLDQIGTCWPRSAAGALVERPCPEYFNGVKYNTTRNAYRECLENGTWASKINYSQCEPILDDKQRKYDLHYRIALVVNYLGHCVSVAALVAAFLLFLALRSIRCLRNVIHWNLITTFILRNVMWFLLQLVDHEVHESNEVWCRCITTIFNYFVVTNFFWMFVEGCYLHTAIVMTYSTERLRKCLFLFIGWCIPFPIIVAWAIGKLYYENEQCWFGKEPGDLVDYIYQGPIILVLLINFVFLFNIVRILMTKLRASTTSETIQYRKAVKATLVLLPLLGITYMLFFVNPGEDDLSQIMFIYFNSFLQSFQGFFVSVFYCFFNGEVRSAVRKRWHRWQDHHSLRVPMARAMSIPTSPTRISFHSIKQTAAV
T1 sequence (P24387 whole entry): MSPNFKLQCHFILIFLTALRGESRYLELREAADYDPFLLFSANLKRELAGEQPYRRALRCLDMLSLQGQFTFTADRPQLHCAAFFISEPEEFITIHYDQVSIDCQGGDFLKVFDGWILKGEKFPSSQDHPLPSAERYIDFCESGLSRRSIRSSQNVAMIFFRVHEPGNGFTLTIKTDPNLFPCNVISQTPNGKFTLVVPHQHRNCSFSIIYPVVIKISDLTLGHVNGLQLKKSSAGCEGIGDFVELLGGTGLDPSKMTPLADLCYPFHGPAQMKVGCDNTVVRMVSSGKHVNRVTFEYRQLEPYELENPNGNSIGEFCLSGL

[2] = biological target: T1, Corticotropin-releasing factor receptor 2/Corticotropin-releasing factor-binding protein; assay: Dose Response confirmation of uHTS hits for small molecule antagonists of the CRF-binding protein and CRF-R2 receptor complex.; format: functional; settings: read-out: IC50_Mean
[3] = HEp-2 cell cytotoxicity, dose response, cytotoxicity control for RSV inhibitor project, HTS (AID 2410); format: functional; settings: human respiratory syncytial virus
[4] = test system: Streptococcus sp. 'group A'; assay: growth inhibition of control SK(-) GAS strain, dose response, counter-screen for streptokinase expression inhibitor project, luminescence, kanamycin, BacTiterGlo, confirmation (AID 1900); format: functional, organism-based
[5] = test system: Streptococcus; assay: Group A Streptococcus viability loss, dose response, counter-screen for streptokinase expression inhibitor project, luminescence, BacTiterGlo (AID 1915); format: functional, organism-based;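 further: potency for reduction of bacterial viability or growth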
[6] = biological target: T2, Streptokinase A (Streptococcus pyogenes serotype M1, UniProt P10520); assay: S. pyogenes streptokinase expression inhibitors, potency, dose response, plasminogen activation absorbance, OD405 (AID 1914); format: functional, Streptococcus pyogenes M1 GAS;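 further: secreted streptokinase activity via plasminogen activation per viability signal from cell pellet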
T2 sequence (P10520 whole entry): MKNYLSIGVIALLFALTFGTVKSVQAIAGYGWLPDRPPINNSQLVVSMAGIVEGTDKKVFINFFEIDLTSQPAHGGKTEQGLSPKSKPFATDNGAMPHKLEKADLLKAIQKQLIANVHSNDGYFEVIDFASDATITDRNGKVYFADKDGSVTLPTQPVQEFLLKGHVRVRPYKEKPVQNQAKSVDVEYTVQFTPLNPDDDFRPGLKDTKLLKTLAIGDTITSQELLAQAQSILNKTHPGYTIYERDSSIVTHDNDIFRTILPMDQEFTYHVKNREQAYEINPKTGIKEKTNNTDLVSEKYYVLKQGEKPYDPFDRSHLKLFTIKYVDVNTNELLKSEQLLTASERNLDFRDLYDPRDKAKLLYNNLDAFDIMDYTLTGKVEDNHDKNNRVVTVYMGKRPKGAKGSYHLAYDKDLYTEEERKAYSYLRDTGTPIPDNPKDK

[7] = biological target: T3, Protein RecA (Mycobacterium tuberculosis, UniProt P9WHJ3); assay: Fluorescence Cell-Free Homogeneous Dose Retest to Identify Inhibitors of RecA-Intein Splicing Activity. [Related pubchem assays (depositor defined):AID2097, AID2223, AID489010, AID492950]; format: functional
T3 sequence (P9WHJ3 whole entry): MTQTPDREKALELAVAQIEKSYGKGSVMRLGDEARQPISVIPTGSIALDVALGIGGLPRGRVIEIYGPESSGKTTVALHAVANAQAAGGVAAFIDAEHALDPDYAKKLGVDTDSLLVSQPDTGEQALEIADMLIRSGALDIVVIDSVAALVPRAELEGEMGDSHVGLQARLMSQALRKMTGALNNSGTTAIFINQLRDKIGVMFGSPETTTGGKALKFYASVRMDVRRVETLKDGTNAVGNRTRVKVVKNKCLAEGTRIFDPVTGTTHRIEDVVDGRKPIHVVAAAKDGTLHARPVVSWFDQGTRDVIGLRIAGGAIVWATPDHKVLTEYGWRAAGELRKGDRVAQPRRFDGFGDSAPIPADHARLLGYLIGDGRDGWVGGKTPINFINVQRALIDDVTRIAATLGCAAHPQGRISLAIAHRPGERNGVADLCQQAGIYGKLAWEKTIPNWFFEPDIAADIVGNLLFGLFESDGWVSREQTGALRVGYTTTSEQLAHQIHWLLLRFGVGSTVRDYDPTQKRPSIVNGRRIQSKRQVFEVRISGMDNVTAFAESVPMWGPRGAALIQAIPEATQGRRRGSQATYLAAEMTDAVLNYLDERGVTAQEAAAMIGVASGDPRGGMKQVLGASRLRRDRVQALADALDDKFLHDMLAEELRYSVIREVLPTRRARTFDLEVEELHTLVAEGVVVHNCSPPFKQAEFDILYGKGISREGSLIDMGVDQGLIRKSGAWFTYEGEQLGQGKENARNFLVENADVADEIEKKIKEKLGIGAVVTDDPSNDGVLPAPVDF

[8] = biological target: T4, Replicative DNA helicase DnaB (Mycobacterium tuberculosis, UniProt P9WMR3); assay: DnaB intein splicing inhibitors, dose response, biochemical, cell-free fluorescence (AID 449749); format: functional
T4 sequence (P9WMR3 whole entry): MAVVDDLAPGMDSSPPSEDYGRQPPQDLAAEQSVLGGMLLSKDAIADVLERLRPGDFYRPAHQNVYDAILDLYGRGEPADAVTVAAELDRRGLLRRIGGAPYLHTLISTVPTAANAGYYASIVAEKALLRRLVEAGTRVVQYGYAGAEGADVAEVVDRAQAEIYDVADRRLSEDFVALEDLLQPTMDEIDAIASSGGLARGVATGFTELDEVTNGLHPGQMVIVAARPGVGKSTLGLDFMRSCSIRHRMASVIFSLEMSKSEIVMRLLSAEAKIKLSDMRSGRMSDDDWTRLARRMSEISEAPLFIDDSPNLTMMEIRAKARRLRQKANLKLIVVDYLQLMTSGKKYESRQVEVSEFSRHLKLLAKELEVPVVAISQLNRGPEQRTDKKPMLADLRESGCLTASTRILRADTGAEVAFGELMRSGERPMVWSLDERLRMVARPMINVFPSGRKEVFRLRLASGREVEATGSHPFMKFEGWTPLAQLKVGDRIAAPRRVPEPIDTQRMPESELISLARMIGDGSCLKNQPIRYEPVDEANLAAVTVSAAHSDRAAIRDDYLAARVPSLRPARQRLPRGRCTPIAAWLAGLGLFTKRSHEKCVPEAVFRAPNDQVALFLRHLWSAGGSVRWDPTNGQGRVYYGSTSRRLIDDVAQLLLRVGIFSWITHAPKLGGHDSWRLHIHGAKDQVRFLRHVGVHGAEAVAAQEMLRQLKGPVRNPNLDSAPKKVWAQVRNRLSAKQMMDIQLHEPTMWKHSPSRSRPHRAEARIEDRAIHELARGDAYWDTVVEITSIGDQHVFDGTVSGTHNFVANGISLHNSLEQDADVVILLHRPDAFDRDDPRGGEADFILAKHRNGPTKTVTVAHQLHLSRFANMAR

Row | Compound | EC50 [1] | IC50 [2] | other results
1 | CC(=O)c1cc(F)c(N2CCN(C(=O)C(C)(C)C)CC2)cc1C | > 53 µM (inactive) | > 47.1 µM (inactive) | –
2 | COc1ccccc1NS(=O)(=O)c1cc(C(=O)N2CCCC2)ccc1F | > 53 µM (inactive) | > 47.1 µM (inactive) | –
3 | CCOc1cc2[nH]c(=O)n(Cc3ccccc3)c(=O)c2cc1OCC | > 53 µM (inactive) | > 47.1 µM (inactive) | –
4 | CCn1c(SCC(=O)N2CCN(c3cccc(Cl)c3)CC2)nc2ccccc2c1=O | – | – | CC50 [3]: 47.5 µM (active)
5 | COc1ccc(N(CC(=O)N/N=C/c2ccc3c(c2)OCO3)S(=O)(=O)c2ccc(NC(C)=O)cc2)cc1 | > 53 µM (inactive) | > 47.1 µM (inactive) | –
6 | COCCN1CCC(CO)C1 (stereo unspecified) | > 53 µM (inactive) | > 47.1 µM (inactive) | –
7 | CC1=C(C#N)C(=O)NC(C)(C)C1 | > 53 µM (inactive) | > 47.1 µM (inactive) | –
8 | C/C(=N\NC1=NC(=O)C(CC(=O)Nc2ccc(C)c(Cl)c2)S1)C(C)(C)C (stereo unspecified) | – | – | CC50 [3]: 13.8 µM (active)
9 | CC(C)(CSc1ncccn1)NS(=O)(=O)c1ccccc1 | > 53 µM (inactive) | > 47.1 µM (inactive) | –
10 | Cc1cc(/C=C(/C#N)c2nc3ccccc3[nH]2)c(C)n1-c1cccc([N+](=O)[O-])c1 | – | – | CC50 [3]: 22.6 µM (active)
11 | COCCn1c(N)c(C(=O)Nc2sc3c(c2C(=O)OC)CCCC3)c2nc3ccccc3nc21 | – | – | EC50 [4]: 1.83 µM (active); EC50 [5]: 82.4 µM (active); CC50 [3]: > 50 µM (active); EC50 [6]: > 150 µM (not active)
12 | Cc1onc(-c2ccccc2)c1CNC(=O)CN1C(=O)c2ccccc2C1=O | > 53 µM (inactive) | > 47.1 µM (inactive) | –
13 | CN(CCc1cnn(C)c1)C(=O)C1CCC(=O)N(CC2CCCCC2)C1 (stereo unspecified) | – | – | EC50 [7]: > 380 µM (inactive); AC50 [8]: > 380 µM (inactive)
14 | CSc1ccccc1C(=O)N1CCN(S(=O)(=O)c2sc(C(=O)O)c(C)c2C(=O)O)CC1 | > 53 µM (inactive) | > 47.1 µM (inactive) | –
15 | CCC(=O)Nc1cccc(-c2csc(-c3ccccc3)n2)c1 | – | – | CC50 [3]: 26.4 µM (active)
16 | CC12CC3CC(C)(C1)CC(C(=O)NNC(=O)c1ccncc1)(C3)C2 | > 53 µM (inactive) | > 47.1 µM (inactive) | –
17 | O=C1C([O-])=C([n+]2ccccc2)C(=O)c2ccccc21 | – | – | EC50 [7]: 3.52 µM (active); AC50 [8]: 2.79 µM (active)
18 | COC(=O)C(C)N(C(=O)c1cccc2ccccc12)c1c(C)cccc1C (stereo unspecified) | – | – | CC50 [3]: 19.9 µM (active)
19 | O=C(CCN1CCCC1=O)NC1CCCc2c1cnn2-c1ccccc1F (stereo unspecified) | > 53 µM (inactive) | > 47.1 µM (inactive) | –

Row | Compound | EC50 [1] | IC50 [2] | other results
20 | O=C(COc1cccc(Cl)c1)Nc1ccc(N2CCOCC2)cc1 | > 53 µM (inactive) | > 47.1 µM (inactive) | –
21 | Nc1nonc1-n1nnc(C(=O)N/N=C/c2ccccc2)c1CSc1ccc(Cl)cc1 | > 53 µM (inactive) | – | –
22 | Cc1cc2c3c(c1)C(C)CC(C)(C)N3C(=O)C2=C(C#N)C#N (stereo unspecified) | – | – | EC50 [7]: 2.22 µM (active); AC50 [8]: 23.8 µM (active)
23 | O=C1C(Cl)=C(NCC2CCCO2)C(=O)N1c1ccccc1 (stereo unspecified) | – | – | EC50 [7]: 6.58 µM (active); AC50 [8]: 18.8 µM (active)
24 | CCn1cc(C(=O)NCCCN(CC(C)C)CC(C)C)c(=O)c2cc(S(=O)(=O)N(C)C3CCCCC3)ccc21 | 7.06 µM (active) | – | –
25 | Cc1ccc2c(cnn2C(=O)CCC(=O)N2CCCCC2)c1 | > 53 µM (inactive) | > 47.1 µM (inactive) | –
26 | Cc1cc(O)c(C(C)C)cc1/N=C\c1ccccc1O | – | – | EC50 [7]: 8.89 µM (active); AC50 [8]: 4.29 µM (active)
27 | CCN1N=C(c2cc(Cl)sc2Cl)CSC1=O | – | – | CC50 [3]: > 50 µM (active)
28 | Nc1ccccc1SC1CC(=O)N(c2ccc3c(c2)OCO3)C1=O (stereo unspecified) | > 53 µM (inactive) | > 47.1 µM (inactive) | –
29 | CC(C)Cc1ccc(-c2cc(O)[nH]n2)cc1 | – | – | EC50 [7]: 0.664 µM (active); AC50 [8]: 1.79 µM (active)
30 | Cc1occc1C(=O)N/N=C/C(Br)=C/c1ccccc1 | – | – | CC50 [3]: 32 µM (active)
31 | CS/C(=C\[N+](=O)[O-])Nc1ccc(OC(F)(F)F)cc1 | – | – | EC50 [7]: 7.21 µM (active); AC50 [8]: 14.6 µM (active)
32 | O=C(CCl)N(c1ccccc1)c1ccccc1 | – | – | EC50 [7]: 0.484 µM (active); AC50 [8]: 17.1 µM (active)
33 | Cc1c(C(c2ccc(N(C)C)cc2)c2c(C)n(C)n(-c3ccccc3)c2=O)c(=O)n(-c2ccccc2)n1C | > 53 µM (inactive) | > 47.1 µM (inactive) | –
34 | COc1ccc(-c2csc(NC(=O)CS(=O)(=O)c3ccccc3)n2)cc1 | – | – | CC50 [3]: 20.4 µM (active)
35 | CCCC(=O)Nc1ccc2c(c1)Cc1ccccc1-2 | – | – | CC50 [3]: > 50 µM (active)
36 | CSc1ccccc1NC(=O)COC(=O)c1c[nH]c(=O)[nH]c1=O | > 53 µM (inactive) | – | –
37 | Cc1cc(C)cc(NC(=O)c2ccc(N3C(=O)C4CCCCC4C3=O)cc2)c1 (stereo unspecified) | > 53 µM (inactive) | > 47.1 µM (inactive) | –
38 | Cc1c(C(=O)Nc2cccc([N+](=O)[O-])c2)sc2ncn(CC(=O)N3CCOCC3)c(=O)c12 | > 53 µM (inactive) | > 47.1 µM (inactive) | –
